Laboratory results taken from US5773438A, “Synthetic matrix metalloprotease inhibitors and use thereof” (Glycomed Incorporated, priority 1994, dated 1998).
Entries after “also recorded” stand apart in the source; their conditions may differ.

Experiments:
[1] = system: protease activity in open and chronic wound fluids; assay: Azocoll assay of protease activity in open and chronic wound fluids; format: biochemical, human
Description: Fluids were collected from 3 types of human wounds termed closed spontaneously healing wounds, open slowly healing wounds, and open chronic wounds. In the first category were fluids collected from the chest wall of women following mastectomy surgery. Fluids from non-infected wounds that were left open for valid surgical reasons were considered open slowly healing wounds. An occlusive dressing was placed over the wound bed, and fluids were collected after 2-6 hours of occlusion. Finally, fluids were also collected from chronic open wounds by covering the wounds with occlusive dressings. Wounds were considered to be chronic if they were not clinically infected and had been open and not healing for more than 4 weeks.
The various wound fluids were assayed for matrix metalloproteinase activity using the Azocoll assay essentially as described by Chavira, et al., Analytic Biochemistry (1984), 136:446.
The fluids were centrifuged, and the supernatants filtered using a 0.45μ sterile Gelman filter. The filtrates were stored frozen at -80° C. until tested for protease activity.
The effects of four inhibitors on the protease activity present in wound fluids were determined. The inhibitors were: compounds
These inhibitors were compared to certain other inhibitors and these were UL001 [HSCH2 CH(CH2 CH(CH3)2)CO--Phe--Ala--NH2 ] obtained from Peptides International and MP506, obtained from Elastin Products. EDTA (ethylenediamine tetraacetic acid) and PMSF (phenylmethylsulfonyl fluoride) were also studied.
Briefly, 900 μl of the Azocoll substrate suspension in buffer ([…] in 50 mM TRIS, pH 7.8, 1 mM CaCl2) was added to 1.5 ml microcentrifuge tubes then 50 μl of inhibitor (or buffer) and 50 μl of chronic wound fluid (or collagenase standard) were added to the reaction tube. The reaction tubes were placed at 37° C. in a shaker that inverted the tubes 30 times per minute. After 24 hours of incubation, the reaction tubes were centrifuges at 10,000 X g and the absorbance of the supernatant solution was measured at 520 nm with a Milton-Roy spectrophotometer. Proteolysis of Azocoll substrate generates soluble colored fragments from the insoluble Azocoll substrate. Wound fluid samples were incubated alone or with the inhibitors. Controls included incubation of the Azocoll substrate with the assay buffer to measure spontaneous degradation of the substrate. A standard curve for digestion of the Azocoll substrate was generated by incubation of the Azocoll with crude bacterial collagenase. Protease levels were expressed as net μg of collagenase equivalent per ml of chronic wound fluid. In the figures, certain of the wound fluids are referred to by an individual name.

[2] = system: infiltration of neutrophils in the peritoneal cavity; assay: thioglycollate induced peritonitis assay; format: in vivo, Balb/c male mice; conditions: 800 μg/ml, 1 ml/animal i.p. at 0.5, 1.0, 2.0 hr; p=0.0141
Description: 6-8 week old Balb/c male mice were used (n=10 each for the treated and control groups). Thioglycollate suspension (5.9 g/l in deionized water) was boiled until the color was golden, then cooled yielding a pink color. The lavage solution consisted of saline supplemented with 0.1% bovine serum albumin (100 mg/100 ml) and 5U heparin/ml.
Cells were collected by lavage at T=3.0 hr. post thioglycollate administration. The animals were euthanized by CO2 asphyxiation, and the abdominal skin was cut with surgical scissors to reveal the peritoneal cavity. Five ml of lavage fluid was injected into the peritoneum, and a suspension was made by gentle massage. The fluid was removed by syringe, recovering about 80% of the injected fluid. Total cell counts in the lavage fluid were determined by Coulter Counter.

B16-F10 murine melanoma = assay: experimental metastasis assay in C57 mice; format: in vivo, Female C57 BL/6 mice; conditions: days 35-37; 150 mg/kg/d ip; p<0.05
Description: Female C57 BL/6 mice, 4-6 weeks old (15-20 grams), from Simonsen Laboratories (Gilroy, Calif.) were used for this assay.
The B16-F10 murine melanoma was obtained from the American Type Tissue Culture Collection, and routinely propagated in DMEM (Dulbecco's modified eagles medium)+10% fetal calf serum in plastic tissue culture flasks in a humidified 5% CO2 incubator at 37° C. B16-F10 tumor cells were harvested with trypsin-EDTA (ethylenediamine-tetraacetic acid), washed with PBS (phosphate buffered saline, 2x), resuspended at a concentration of 5×10^5 cells/ml, and held on ice prior to injection. Animals were challenged with 5×10^4 cells in a volume of 0.1 ml intravenously (10 animals/treatment group). Animals were randomly distributed prior to assignment to treatment groups.
Survival times were recorded for animals in the various treatment groups, and results were evaluated using Chi-Squared statistical analysis.

hypovolemic shock = assay: hypovolemic shock, trauma-hemorrhage and resuscitation, non-heparinized rat; format: in vivo, Sprague-Dawley rats
Description: This experiment relates to metalloprotease inhibitors in treating hypovolemic shock when administered systemically (via i.v. injection, infusion or other appropriate route) during resuscitation following hemorrhage-induced shock in a non-heparinized animal.
Following hemorrhage, Ringer's lactate (3X maximum bleedout volume) was given over 45 minutes followed by Ringer's lactate (2X maximum bleedout volume) over 60 minutes. […] Sham-operated animals underwent blood vessel cannulation and midline incision, but hemorrhage and resuscitation was not induced. […] Saline-treated underwent trauma-hemorrhage and fluid resuscitation plus vehicle (an equal volume of normal saline) treatment.

Structure (SMILES): CNC(=O)[C@H](Cc1c[nH]c2ccccc12)NC(=O)[C@@H](CC(=O)NO)CC(C)C [Compound 5A, N-[D,L-2-isobutyl-3-(N'-hydroxycarbonylamido)-propanoyl]-tryptophan methylamide]
- effect on proteolytic activity of open and chronic wound fluids ([1]; FIG. 5): very effective inhibitors
- inhibition of Azocoll-degrading proteases in wound fluids ([1]; FIG. 6): very effectively; also recorded: very effective inhibitors
- reduction of proteolytic activity in open or chronic wound fluids ([1]; fluids with high levels of Azocoll-degrading protease activity): 95%
- average number of cells in the peritoneum versus vehicle [2]: significantly reduced
- survival of mice versus vehicle control (B16-F10 murine melanoma): significant increase in the survival
- hepatocellular function (Vmax and Km) (hypovolemic shock; 2 and 4 hours): improved hepatic function relative to saline group; also recorded: restores or significantly improves
- Vmax of indocyanine green clearance versus saline group (hypovolemic shock; 2 h): significantly higher
- maximal clearance rate (Vmax) of indocyanine green (hypovolemic shock; 2 h after resuscitation, of sham level): about 85%
- microvascular blood flow versus saline group (hypovolemic shock; 2 h and 4 h, liver, kidney, spleen, small intestine): elevated relative to the saline group; also recorded: restores or significantly improves
- microvascular blood flow (hypovolemic shock; 2 h and 4 h, of sham, liver, kidney, spleen, small intestine): 80-100%
- Vmax of indocyanine green clearance versus saline treated animals (hypovolemic shock; 4 h): two-fold that of saline treated animals
- total peripheral resistance (hypovolemic shock; following resuscitation, versus saline or sham): lower following resuscitation in 5A group versus saline or sham treatment; also recorded: decreases total peripheral resistance
- cardiac output (hypovolemic shock; of sham group): about 80%
- stroke volume (hypovolemic shock; of sham group): about 85%
- mean arterial pressure (hypovolemic shock; of the sham group): 60-70%
- cardiac output versus saline group (hypovolemic shock; rat, in vivo): significantly elevated; also recorded: restores or significantly improves
- mean arterial pressure versus saline (hypovolemic shock; rat, in vivo): not significantly different; also recorded: no significant effects
- stroke volume versus saline group (hypovolemic shock; rat, in vivo): elevated relative to saline group
- systemic hematocrit versus saline treated group (hypovolemic shock; rat, in vivo): no significant effects
- heart rate (hypovolemic shock; versus other groups): about the same; also recorded: no significant effects
